# Results reported in ChEMBL document CHEMBL3885881, “DrugMatrix”.
# Species: Rattus norvegicus
# Test: DrugMatrix - Regimen: Daily Repeat
# Format: toxicity, organism-based, Sprague-Dawley
# Parameters: regimen Daily Repeat, gender Male, age 6-8 weeks
# Conditions: in vivo, po, route oral GAVAGE, vehicle .5 % CMC; for ABSOLUTE BASOPHIL / BASOPHIL / EOSINOPHIL / ERYTHROCYTE COUNT / HEMATOCRIT / HEMOGLOBIN / LEUKOCYTE COUNT / LYMPHOCYTE / MEAN CORPUSCULAR HEMOGLOBIN / MEAN CORPUSCULAR HEMOGLOBIN CONCENTRATION / MEAN CORPUSCULAR VOLUME / MONOCYTE / NEUTROPHIL / PLATELET COUNT: tissue Blood; for ALANINE AMINOTRANSFERASE / ALKALINE PHOSPHATASE / ASPARTATE AMINOTRANSFERASE / BLOOD UREA NITROGEN / CHLORIDE / CHOLESTEROL / CREATINE PHOSPHOKINASE / CREATININE / GLUCOSE / PHOSPHORUS / POTASSIUM / SODIUM / TOTAL BILIRUBIN / TOTAL PROTEIN: tissue Plasma
# [1] = 0 mg/kg, 72 h, dose level Control, time 3 day
# [2] = 0 mg/kg, 120 h, dose level Control, time 5 day
# [3] = 32 mg/kg, 72 h, dose level Low, time 3 day
# [4] = 32 mg/kg, 120 h, dose level Low, time 5 day
# [5] = 320 mg/kg, 72 h, dose level High, time 3 day
# [6] = 320 mg/kg, 120 h, dose level High, time 5 day
smiles,measurement,setting,value
C1CCC(C(CC2CCCCN2)C2CCCCC2)CC1 (stereo not drawn) [PERHEXILINE],ABSOLUTE BASOPHIL,[1],16.7 cells/µL
same,BASOPHIL,[1],0.17%
same,EOSINOPHIL,[1],0.62%
same,ERYTHROCYTE COUNT,[1],6.55 x10E6/uL
same,HEMATOCRIT,[1],42%
same,HEMOGLOBIN,[1],13.48 G/DL
same,LEUKOCYTE COUNT,[1],8.79 x10E3/uL
same,LYMPHOCYTE,[1],76.98%
same,MEAN CORPUSCULAR HEMOGLOBIN,[1],20.57 pg
same,MEAN CORPUSCULAR HEMOGLOBIN CONCENTRATION,[1],32.08 G/DL
same,MEAN CORPUSCULAR VOLUME,[1],64.1 fL
same,MONOCYTE,[1],2.12%
same,NEUTROPHIL,[1],19%
same,PLATELET COUNT,[1],1432.17 x10E3/uL
same,ALANINE AMINOTRANSFERASE,[1],42.83 u/L
same,ALKALINE PHOSPHATASE,[1],328.5 u/L
same,ASPARTATE AMINOTRANSFERASE,[1],78.33 u/L
same,BLOOD UREA NITROGEN,[1],14.5 mg/dL
same,CHLORIDE,[1],104.5 MEQ/L
same,CHOLESTEROL,[1],78.67 mg/dL
same,CREATINE PHOSPHOKINASE,[1],282.33 u/L
same,CREATININE,[1],0.25 mg/dL
same,GLUCOSE,[1],173.67 mg/dL
same,PHOSPHORUS,[1],12.83 mg/dL
same,POTASSIUM,[1],6.7 MEQ/L
same,SODIUM,[1],145.83 MEQ/L
same,TOTAL BILIRUBIN,[1],0.4 mg/dL
same,TOTAL PROTEIN,[1],5.93 G/DL
same,ABSOLUTE BASOPHIL,[2],28 cells/µL
same,BASOPHIL,[2],0.26%
same,EOSINOPHIL,[2],0.44%
same,ERYTHROCYTE COUNT,[2],6.99 x10E6/uL
same,HEMATOCRIT,[2],45.12%
same,HEMOGLOBIN,[2],14.26 G/DL
same,LEUKOCYTE COUNT,[2],9.42 x10E3/uL
same,LYMPHOCYTE,[2],79.92%
same,MEAN CORPUSCULAR HEMOGLOBIN,[2],20.44 pg
same,MEAN CORPUSCULAR HEMOGLOBIN CONCENTRATION,[2],31.62 G/DL
same,MEAN CORPUSCULAR VOLUME,[2],64.6 fL
same,MONOCYTE,[2],2.2%
same,NEUTROPHIL,[2],16.14%
same,PLATELET COUNT,[2],1062.2 x10E3/uL
same,ALANINE AMINOTRANSFERASE,[2],44 u/L
same,ALKALINE PHOSPHATASE,[2],342.6 u/L
same,ASPARTATE AMINOTRANSFERASE,[2],74.17 u/L
same,BLOOD UREA NITROGEN,[2],13 mg/dL
same,CHLORIDE,[2],103 MEQ/L
same,CHOLESTEROL,[2],72.83 mg/dL
same,CREATINE PHOSPHOKINASE,[2],184.67 u/L
same,CREATININE,[2],0.47 mg/dL
same,GLUCOSE,[2],168.17 mg/dL
same,PHOSPHORUS,[2],12.27 mg/dL
same,POTASSIUM,[2],6.98 MEQ/L
same,SODIUM,[2],147 MEQ/L
same,TOTAL BILIRUBIN,[2],0.65 mg/dL
same,TOTAL PROTEIN,[2],6.23 G/DL
same,ABSOLUTE BASOPHIL,[3],20 cells/µL
same,BASOPHIL,[3],0.17%
same,EOSINOPHIL,[3],0.47%
same,ERYTHROCYTE COUNT,[3],6.84 x10E6/uL
same,HEMATOCRIT,[3],42.07%
same,HEMOGLOBIN,[3],13.8 G/DL
same,LEUKOCYTE COUNT,[3],11 x10E3/uL
same,LYMPHOCYTE,[3],83.1%
same,MEAN CORPUSCULAR HEMOGLOBIN,[3],20.2 pg
same,MEAN CORPUSCULAR HEMOGLOBIN CONCENTRATION,[3],32.8 G/DL
same,MEAN CORPUSCULAR VOLUME,[3],61.57 fL
same,MONOCYTE,[3],1.9%
same,NEUTROPHIL,[3],12.83%
same,PLATELET COUNT,[3],1282.33 x10E3/uL
same,ALANINE AMINOTRANSFERASE,[3],33.33 u/L
same,ALKALINE PHOSPHATASE,[3],346 u/L
same,ASPARTATE AMINOTRANSFERASE,[3],61 u/L
same,BLOOD UREA NITROGEN,[3],11.67 mg/dL
same,CHLORIDE,[3],104.33 MEQ/L
same,CHOLESTEROL,[3],65.33 mg/dL
same,CREATINE PHOSPHOKINASE,[3],229 u/L
same,CREATININE,[3],0.37 mg/dL
same,GLUCOSE,[3],183.67 mg/dL
same,PHOSPHORUS,[3],13.7 mg/dL
same,POTASSIUM,[3],6.87 MEQ/L
same,SODIUM,[3],145.33 MEQ/L
same,TOTAL BILIRUBIN,[3],0.3 mg/dL
same,TOTAL PROTEIN,[3],5.73 G/DL
same,ABSOLUTE BASOPHIL,[4],150 cells/µL
same,BASOPHIL,[4],1.2%
same,EOSINOPHIL,[4],0.5%
same,ERYTHROCYTE COUNT,[4],7.42 x10E6/uL
same,HEMATOCRIT,[4],47.53%
same,HEMOGLOBIN,[4],15.03 G/DL
same,LEUKOCYTE COUNT,[4],12.21 x10E3/uL
same,LYMPHOCYTE,[4],82.57%
same,MEAN CORPUSCULAR HEMOGLOBIN,[4],20.33 pg
same,MEAN CORPUSCULAR HEMOGLOBIN CONCENTRATION,[4],31.7 G/DL
same,MEAN CORPUSCULAR VOLUME,[4],64.2 fL
same,MONOCYTE,[4],2.13%
same,NEUTROPHIL,[4],12.7%
same,PLATELET COUNT,[4],1404 x10E3/uL
same,ALANINE AMINOTRANSFERASE,[4],34.33 u/L
same,ALKALINE PHOSPHATASE,[4],375.33 u/L
same,ASPARTATE AMINOTRANSFERASE,[4],68.33 u/L
same,BLOOD UREA NITROGEN,[4],11.33 mg/dL
same,CHLORIDE,[4],102 MEQ/L
same,CHOLESTEROL,[4],67 mg/dL
same,CREATINE PHOSPHOKINASE,[4],206.67 u/L
same,CREATININE,[4],0.3 mg/dL
same,GLUCOSE,[4],187 mg/dL
same,PHOSPHORUS,[4],12.13 mg/dL
same,POTASSIUM,[4],6.8 MEQ/L
same,SODIUM,[4],149.67 MEQ/L
same,TOTAL BILIRUBIN,[4],0.3 mg/dL
same,TOTAL PROTEIN,[4],6.4 G/DL
same,ABSOLUTE BASOPHIL,[5],33.3 cells/µL
same,BASOPHIL,[5],0.33%
same,EOSINOPHIL,[5],0.4%
same,ERYTHROCYTE COUNT,[5],7.33 x10E6/uL
same,HEMATOCRIT,[5],45.27%
same,HEMOGLOBIN,[5],14.7 G/DL
same,LEUKOCYTE COUNT,[5],9.79 x10E3/uL
same,LYMPHOCYTE,[5],79.33%
same,MEAN CORPUSCULAR HEMOGLOBIN,[5],20.1 pg
same,MEAN CORPUSCULAR HEMOGLOBIN CONCENTRATION,[5],32.53 G/DL
same,MEAN CORPUSCULAR VOLUME,[5],61.77 fL
same,MONOCYTE,[5],1.37%
same,NEUTROPHIL,[5],17.17%
same,PLATELET COUNT,[5],1599 x10E3/uL
same,ALANINE AMINOTRANSFERASE,[5],47 u/L
same,ALKALINE PHOSPHATASE,[5],318.5 u/L
same,ASPARTATE AMINOTRANSFERASE,[5],61.67 u/L
same,BLOOD UREA NITROGEN,[5],9.67 mg/dL
same,CHLORIDE,[5],102.33 MEQ/L
same,CHOLESTEROL,[5],74 mg/dL
same,CREATINE PHOSPHOKINASE,[5],199.67 u/L
same,CREATININE,[5],0.33 mg/dL
same,GLUCOSE,[5],167 mg/dL
same,PHOSPHORUS,[5],14.17 mg/dL
same,POTASSIUM,[5],6.63 MEQ/L
same,SODIUM,[5],146.33 MEQ/L
same,TOTAL BILIRUBIN,[5],0.33 mg/dL
same,TOTAL PROTEIN,[5],6 G/DL
same,ABSOLUTE BASOPHIL,[6],50 cells/µL
same,BASOPHIL,[6],0.5%
same,EOSINOPHIL,[6],0.34%
same,ERYTHROCYTE COUNT,[6],7.26 x10E6/uL
same,HEMATOCRIT,[6],45.84%
same,HEMOGLOBIN,[6],14.82 G/DL
same,LEUKOCYTE COUNT,[6],10.17 x10E3/uL
same,LYMPHOCYTE,[6],80.92%
same,MEAN CORPUSCULAR HEMOGLOBIN,[6],20.46 pg
same,MEAN CORPUSCULAR HEMOGLOBIN CONCENTRATION,[6],32.36 G/DL
same,MEAN CORPUSCULAR VOLUME,[6],63.26 fL
same,MONOCYTE,[6],1.18%
same,NEUTROPHIL,[6],16.4%
same,PLATELET COUNT,[6],1254 x10E3/uL
same,ALANINE AMINOTRANSFERASE,[6],48.8 u/L
same,ALKALINE PHOSPHATASE,[6],300.75 u/L
same,ASPARTATE AMINOTRANSFERASE,[6],75.6 u/L
same,BLOOD UREA NITROGEN,[6],12.2 mg/dL
same,CHLORIDE,[6],102.2 MEQ/L
same,CHOLESTEROL,[6],68.6 mg/dL
same,CREATINE PHOSPHOKINASE,[6],173.4 u/L
same,CREATININE,[6],0.36 mg/dL
same,GLUCOSE,[6],186.4 mg/dL
same,PHOSPHORUS,[6],13.36 mg/dL
same,POTASSIUM,[6],6.38 MEQ/L
same,SODIUM,[6],146.8 MEQ/L
same,TOTAL BILIRUBIN,[6],0.28 mg/dL
same,TOTAL PROTEIN,[6],5.88 G/DL
